Reference: patent publication US6559288B1, “Ninjurin” (Washington University, priority 1996, dated 2003)
Where no end group is shown, it is not given here.

How the values were obtained:
[1] = test system: ninjurin-expressing Jurkat cell transfectants; assay: Inhibition by synthetic peptides of ninjurin-mediated aggregation of ninjurin-expressing Jurkat cell transfectants; assay type: cell-based; details: for inhibition of ninjurin-mediated adhesion relative to wild type peptide 6: single amino acid substitutions in residues 26 to 37, dose-dependent test
Protocol: (§1) Cell adhesion assays. […] Aggregation assays were performed using Jurkat cells (Shimizu et al., (1990) Nature 345, 250-253) stably transfected with pCMV-ninjurin or pCMVneo (nonrecombinant control). The cells were washed twice with RPMI 1640 containing 5 mM Hepes buffer, suspended to a concentration of 2×10^6 cells/ml in RPMI1640 with 10% FCS, and 100 μl of the cell suspension were added to each well of a flat-bottomed 96-well microtiter plate. The formation of aggregates was examined after 1 hr using phase contrast microscopy. […] The ninjurin positive cells were stained red with 1 mM CMTMR (5-(and-6)-(((4-chloromethyl)benzoyl)amino) tetramethylrhodamine) and control cells were stained green with 1 mM CMFTA (5-chloromethylfluoresceindiacetate) as described in the manufacturer's protocol (Molecular Probes). The cells were resuspended to 1×10^6 cells/ml, and 3 ml of the mixed cell suspension was allowed to form aggregates in 6-well culture plates. The composition of the aggregates was monitored by fluorescence microscopy.
To directly investigate whether the N-terminal extracellular hydrophilic region is responsible for the observed homophilic adhesion, partially overlapping synthetic peptides whose sequences collectively encompass the entire predicted ninjurin extracellular domain were tested for their ability to inhibit the ninjurin-mediated adhesion. Aggregation assays with the ninjurin-expressing Jurkat cell transfectants were performed, and the degree of aggregation was examined after 60 minutes by measuring the number of cells incorporated in aggregates. Peptide 2 inhibited aggregation at a concentration of 0.1 mg/ml, and aggregation was completely abolished at concentrations above 1 mg/ml. In constrast, peptides 1 and 4 had no effect on aggregation at either of these concentrations.
To further delimit the site of interaction, an additional 4 peptides (peptides 5 through 8) were tested for their ability to inhibit ninjurin-mediated aggregation (Data not shown). […] To identify the amino acids most critical for ninjurin-mediated adhesion, peptides (9-15) stretching from residue 26 to 37, each containing single amino acid mutations, were tested in the aggregation assay. The ability of each of these peptides to inhibit ninjurin-mediated adhesion in a dose-dependent manner was examined. The seven residues between prolines 27 and 35 (P27 and P35) were most important.

Jurkat cells = assay: Aggregation assay with Jurkat cells stably transfected with pCMV-ninjurin; assay type: cell-based
Protocol: as §1
Ninjurin mutants fail to support aggregation. […] To investigate these possibilities, Jurkat cell lines expressing ninjurin molecules containing a double mutation (Arg28 to Asn and Asn29 to Ala) in the ninjurin adhesion motif was generated. […]

DRG neurons = assay: DRG neuron/CHO cell co-culture neurite outgrowth; assay type: cell-based, rat; details: for inhibition of the neurite outgrowth promoting effect of ninjurin: peptides 0.5 mg/ml, E17 rat DRG neurons on CHO cells expressing ninjurin
Protocol: Cell culture and transfection. Chinese hamster ovary (CHO) cells were cultured in F-12 medium supplemented with 10% fetal calf serum (FCS). T cell leukemia cells (Jurkat) were grown in RPMI 1640 with 10% FCS. The expression vector pCMV-ninjurin was constructed by inserting the ninjurin cDNA into the plasmid pCMVneo (Brewer, C. B. (1994). Methods in Cell Biol. 43, 233-245). The pCMVneo or pCMV-ninjurin plasmids was transfected into CHO cells via calcium phosphate precipitation and into Jurkat cells via electroporation. Stable transfectants were selected by growth in medium containing G418 (400 μg/ml) and individual clones were isolated by limiting dilution. […] Primary cultures of neurons from dorsal root ganglia (DRG) were prepared from E17 rat embryos as previously described (Eichler et al., (1989) Brain Res 482, 340-346). Dissociated neurons were plated on confluent monolayers of either control CHO cells or CHO cell expressing ninjurin in 24-well plates. Cultures were grown in a medium which consists of 90% Eagles minimal essential medium (Gibco), 10% FCS, 20 μg/ml each of fluoro-deoxyuridine and uridine, and 50 ng/ml mouse NGF (gift from E. Johnson, Washington U.). Six hr after plating, the cells were fixed with 4% paraformaldehyde in PBS, and immunohistochemistry using anti-neurofilament H antibodies was performed. Following previously established criteria (Gennarini et al., (1991) Neuron 6, 595-606), approximately 50 neurites were chosen for measurement which each emerged from a single distinguishable cell body, were longer than the diameter of the neuronal cell body, and were identifiable over their entire length. The length of each neurite was measured after tracing them from the photomicrographs onto grided (2 mm) transparency film. Statistical analysis was performed using Sigma Plot (version 3.0). […]
Ninjurin-stimulated neurite outgrowth is mediated through the adhesion motif. […] The neuronal cultures were treated with peptides (0.5 mg/ml) corresponding to either the native or mutant sequences of the ninjurin adhesion motif, and neurite extension was monitored.

[2] = target: the molecule itself; assay: aggregation assay, Jurkat cells stably transfected with pCMV-ninjurin against pCMVneo control
Protocol: as §1, with “250–253)” for “250-253)”, “2 ×10^6” for “2×10^6”, “µl” for “μl”, “1 ×10^6” for “1×10^6”

CHO cells = assay: Aggregation assay with ninjurin transfected CHO cells; assay type: cell-based, Chinese hamster; details: counted at 15 min intervals, 37° C.
Protocol: For aggregation experiments using CHO cells, cells (ninjurin transfected and control) were harvested from confluent plates by treatment with trypsin, washed with F-12 medium, and resuspended at 1×10^6 cells/ml in F-12 with 10% FCS. Aggregation assays were performed on a rotary shaker at 80 rpm. Quantitation of aggregate formation was monitored at 15 min intervals by counting the number of particles using a hemocytometer (Takeichi, M. (1977). J. Cell. Biol. 75, 464-474). The extent of the aggregate formation is inversely proportional to the number of particles, and was determined by calculating an index Nt/No, where Nt and No were the total particle numbers at incubation times t and 0, respectively (Takeichi, 1977). All of the aggregation experiments were performed at 37° C.

[3] = ninjurin-expressing Jurkat transfectants, aggregation examined after 60 minutes

Molecule: 9: residues 26 to 37 with substitution of Arg28 to Asn28 (SEQ ID NO:14) (PPNWGLRNRPIN; Rat) [Peptide 9]
- inhibition of ninjurin-mediated adhesion relative to wild type peptide 6 [1]: less active

Molecule: 10: residues 26 to 37 with substitution of Trp29 for Ala29 (SEQ ID NO:15) (PPRAGLRNRPIN; Rat) [Peptide 10]
- inhibition of ninjurin-mediated adhesion relative to wild type peptide 6 [1]: less active

Molecule: 11: residues 26 to 37 with substitution of Gly29 to Ala29 (SEQ ID NO:16) (PPRWALRNRPIN; Rat) [Peptide 11]
- inhibition of ninjurin-mediated adhesion relative to wild type peptide 6 [1]: did not exhibit altered inhibition

Molecule: 12: residues 26 to 37 with substitution of Leu31 to Asn31 (SEQ ID NO:17) (PPRWGNRNRPIN; Rat) [Peptide 12]
- inhibition of ninjurin-mediated adhesion relative to wild type peptide 6 [1]: did not exhibit altered inhibition

Molecule: 13: residues 26 to 37 with substitution of Arg32 for Asn32 (SEQ ID NO:18) (PPRWGLNNRPIN; Rat) [Peptide 13]
- inhibition of ninjurin-mediated adhesion relative to wild type peptide 6 [1]: less active

Molecule: 15: residues 26 to 37 with substitution of Arg34 for Asn34 (SEQ ID NO:20) (PPRWGLRNNPIN; Rat) [Peptide 15]
- inhibition of ninjurin-mediated adhesion relative to wild type peptide 6 [1]: less active

Molecule: O=C(O)CN(CCN(CC(=O)O)CC(=O)O)CC(=O)O [EDTA, reference compound]
- aggregate formation in the presence of EDTA (Jurkat cells; ninjurin-expressing Jurkat cells, 1 mM EDTA): no aggregates were detected

Molecule: PPRWGLRNRPIN [Peptide 6]
- inhibitory activity on ninjurin-mediated aggregation compared with other peptides [1]: comparable to peptides 2 or 3
- concentration at which aggregation was completely abolished [1, 3]: above 2 mg/ml
- concentration at which aggregation was inhibited [1, 3]: higher than 0.4 mg/ml
- inhibition of the neurite outgrowth promoting effect of ninjurin (DRG neurons): inhibited

Molecule: Peptide 14: residues 26 to 37 with substitution of Asn33 for Leu33 (SEQ ID NO:19) (PPRWGLRLRPIN; Rat)
- inhibition of ninjurin-mediated adhesion relative to wild type peptide 6 [1]: more effective
- inhibition of ninjurin-mediated adhesion relative to wild type peptide 6 ([1]; listed as Asn-33 to Leu33): greater inhibitory activity than wild type

Molecule: peptide containing a mutation in this sequence: peptide with a mutant sequence of the ninjurin adhesion motif; which mutation is not stated (PPRWGLRNRPIN; Rat)
- inhibition of the neurite outgrowth promoting effect of ninjurin (DRG neurons): no significant inhibitory effect

B1: rat ninjurin (other)
chain: MDPGTEEYELNGDLRPGSPGSPDASPPRWGLRNRPINVNHYANKKSAAESMLDIALLMANASQLKAVVEQGNEFAFFVPLVVLISISLVLQIGVGVLLIFLVKYDLNNPAKHAKLDFLNNLATGLVFIIVVVNIFITAFGVQKPVMDVAPRQ
notes: Full-length rat ninjurin (152 amino acids) expressed from pCMV-ninjurin in stably transfected Jurkat or CHO cells; In protein blots and immunoprecipitations it came from cell or tissue lysates; also called rat ninjurin 1; Nerve Injury Induced protein
- binding result [2]: binds

B2: ninjurin: Nerve Injury Induced protein, 152 amino acids, rat (SEQ ID NO:4), expressed on transfected cells (protein)
chain: MDPGTEEYELNGDLRPGSPGSPDASPPRWGLRNRPINVNHYANKKSAAESMLDIALLMANASQLKAVVEQGNEFAFFVPLVVLISISLVLQIGVGVLLIFLVKYDLNNPAKHAKLDFLNNLATGLVFIIVVVNIFITAFGVQKPVMDVAPRQ
modifications: Rat
- average neurite length (DRG neurons; neurons grown for 6 hr on CHO cells expressing ninjurin, approximately 50 neurons): 569±134 μm
- aggregate formation (Jurkat cells; transfected Jurkat cells, after 1 hr): formation of large aggregates
- number of particles (aggregate formation) (CHO cells): decrease in the number of particles with time
